Source: PubChem BioAssay (NCI)
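Abbreviation: GI50, concentration required for 50% inhibition of growth. TGI marks complete inhibition of growth.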

Experiments:
Assay in all cases: inhibition of tumour cell growth, NCI panel, 384-well format
[1] = system: MALME-3M melanoma
[2] = system: OVCAR-3 ovarian
[3] = system: KM12 colon
[4] = system: SK-MEL-5 melanoma
[5] = system: RXF 393 renal
[6] = system: HCT-15 colon
[7] = system: SNB-19 CNS
[8] = system: PC-3 prostate
[9] = system: NCI-H522 lung
[10] = system: NCI/ADR-RES ovarian
[11] = system: MDA-MB-468 breast
[12] = system: HCC-2998 colon
[13] = system: NCI-H322M lung
[14] = system: SNB-75 CNS
[15] = system: UACC-62 melanoma
[16] = system: MDA-MB-435 melanoma
[17] = system: HL-60(TB) leukemia
[18] = system: MDA-MB-231 breast
[19] = system: HOP-92 NSCLC
[20] = system: IGROV1 ovarian
[21] = system: A498 renal
[22] = system: COLO 205 colon
[23] = system: HS 578T breast
[24] = system: 786-0 renal
[25] = system: NCI-H226 lung
[26] = system: T-47D breast
[27] = system: TK-10 renal
[28] = system: UACC-257 melanoma
[29] = system: HCT-116 colon
[30] = system: CCRF-CEM leukemia
[31] = system: UO-31 renal
[32] = system: NCI-H23 lung
[33] = system: U251 glioblastoma
[34] = system: NCI-H460 NSCLC
[35] = system: OVCAR-4 ovarian
[36] = system: HOP-62 NSCLC
[37] = system: MOLT-4 leukemia
[38] = system: K-562 leukemia
[39] = system: SK-OV-3 ovarian
[40] = system: SR leukemia
[41] = system: SW-620 colon
[42] = system: A549 NSCLC
[43] = system: SF-539 CNS
[44] = system: M14 melanoma
[45] = system: DU-145 prostate
[46] = system: EKVX NSCLC
[47] = system: LOX IMVI melanoma
[48] = system: SF-268 CNS
[49] = system: ACHN renal
[50] = system: CAKI-1 renal
[51] = system: OVCAR-8 ovarian
[52] = system: HT29 colon
[53] = system: MCF7 breast
[54] = system: BT-549 breast
[55] = system: SF-295 CNS
[56] = system: SK-MEL-28 melanoma
[57] = system: SN12C renal
[58] = system: RPMI-8226 leukemia
[59] = system: SK-MEL-2 melanoma
[60] = system: OVCAR-5 ovarian

`NC(=O)c1ccc2nc(-c3ccc(C4(N)CCC4)cc3)c(-c3ccccc3)n2n1` gave a GI50 [1] of 2140 nM, a TGI [1] of 17100 nM and a GI50 [2] of 683 nM. It also gave a TGI [2] of 18000 nM, a GI50 [3] of 7110 nM and a TGI [3] of 20400 nM. The GI50 [4] was 3810 nM, the TGI [4] was 16300 nM and the GI50 [5] was 1600 nM. The TGI [5] was 10700 nM, the GI50 [6] was 11900 nM and the TGI [6] was 24400 nM. It also gave a GI50 [7] of 13000 nM, a TGI [7] of 25900 nM and a GI50 [8] of 250 nM. The TGI [8] was 12800 nM, the GI50 [9] was 13700 nM and the TGI [9] was 26600 nM. It also gave a GI50 [10] of 15300 nM, a TGI [10] of 29300 nM and a GI50 [11] of 125 nM. It also gave a TGI [11] of 8310 nM, a GI50 [12] of 11200 nM and a TGI [12] of 23200 nM. It also gave a GI50 [13] of 9270 nM, a TGI [13] of 21600 nM and a GI50 [14] of 1250 nM. The TGI [14] was 14600 nM, the GI50 [15] was 3010 nM and the TGI [15] was 16400 nM. The GI50 [16] was 12600 nM, the TGI [16] was 25200 nM and the GI50 [17] was 4260 nM. For the same molecule, the TGI [17] was 17000 nM, the GI50 [18] was 11400 nM and the TGI [18] was 23700 nM. For the same molecule, the GI50 [19] was 5020 nM, the TGI [19] was 18700 nM and the GI50 [20] was 250 nM. For the same molecule, the TGI [20] was 11700 nM, the GI50 [21] was 389 nM and the TGI [21] was 10600 nM. It also gave a GI50 [22] of 2280 nM, a TGI [22] of 16900 nM and a GI50 [23] of 1780 nM. It also gave a TGI [23] of 11800 nM, a GI50 [24] of 2220 nM and a TGI [24] of 13600 nM. For the same molecule, the GI50 [25] was 8960 nM, the TGI [25] was 21500 nM and the GI50 [26] was 28.2 nM. It also gave a TGI [26] of 2990 nM, a GI50 [27] of 5700 nM and a TGI [27] of 20500 nM. For the same molecule, the GI50 [28] was 11300 nM, the TGI [28] was 23400 nM and the GI50 [29] was 5690 nM. It also gave a TGI [29] of 18900 nM, a GI50 [30] of 498 nM and a TGI [30] of 10700 nM. It also gave a GI50 [31] of 2910 nM, a TGI [31] of 16000 nM and a GI50 [32] of 4850 nM. It also gave a TGI [32] of 17500 nM, a GI50 [33] of 10400 nM and a TGI [33] of 22200 nM. For the same molecule, the GI50 [34] was 1130 nM, the TGI [34] was 15800 nM and the GI50 [35] was 14600 nM. It also gave a TGI [35] of 28200 nM, a GI50 [36] of 12100 nM and a TGI [36] of 24500 nM. The GI50 [37] was 305 nM, the TGI [37] was 1930 nM and the GI50 [38] was 4200 nM. For the same molecule, the TGI [38] was 16200 nM, the GI50 [39] was 538 nM and the TGI [39] was 12700 nM. For the same molecule, the GI50 [40] was 230 nM, the TGI [40] was 990 nM and the GI50 [41] was 15800 nM. The TGI [41] was 29300 nM, the GI50 [42] was 5310 nM and the TGI [42] was 18600 nM. The GI50 [43] was 3590 nM, the TGI [43] was 16600 nM and the GI50 [44] was 12800 nM. It also gave a TGI [44] of 25500 nM, a GI50 [45] of 11800 nM and a TGI [45] of 24600 nM. It also gave a GI50 [46] of 5350 nM, a TGI [46] of 20300 nM and a GI50 [47] of 8430 nM. The TGI [47] was 20700 nM, the GI50 [48] was 12300 nM and the TGI [48] was 24800 nM. The GI50 [49] was 11200 nM, the TGI [49] was 23300 nM and the GI50 [50] was 2540 nM. It also gave a TGI [50] of 16800 nM, a GI50 [51] of 12800 nM and a TGI [51] of 25500 nM. It also gave a GI50 [52] of 2620 nM, a TGI [52] of 17900 nM and a GI50 [53] of 125 nM. The TGI [53] was 12400 nM, the GI50 [54] was 2010 nM and the TGI [54] was 15200 nM. The GI50 [55] was 944 nM, the TGI [55] was 11000 nM and the GI50 [56] was 6420 nM. It also gave a TGI [56] of 20200 nM, a GI50 [57] of 8080 nM and a TGI [57] of 20900 nM. For the same molecule, the GI50 [58] was 2390 nM and the TGI [58] was 10300 nM.

In the case of `Cc1cc(C(=O)N[C@@H](CCC(=O)O)C(=O)O)sc1CC[C@@H]1CNc2nc(N)[nH]c(=O)c2C1`, the GI50 [1] is reported as 20 nM, the TGI [1] is reported as 37.2 nM and the GI50 [2] is reported as 19 nM. The TGI [2] was 41.2 nM, the GI50 [3] was 28.5 nM and the TGI [3] was 72.7 nM. For the same molecule, the GI50 [4] was 30.5 nM, the TGI [4] was 135 nM and the GI50 [5] was less than 10 nM. It also gave a TGI [5] of 16.2 nM, a GI50 [6] of 25 nM and a TGI [6] of 57.8 nM. It also gave a GI50 [7] of less than 10 nM, a TGI [7] of 23.1 nM and a GI50 [8] of less than 10 nM. For the same molecule, the TGI [8] was less than 10 nM, the GI50 [9] was 12.7 nM and the TGI [9] was 28.5 nM. The GI50 [10] was 20.1 nM, the TGI [10] was 37.3 nM and the GI50 [11] was 19.4 nM. For the same molecule, the TGI [11] was 41.6 nM, the GI50 [12] was 33.2 nM and the TGI [12] was 1030 nM. The GI50 [13] was 20.2 nM, the TGI [13] was 39.4 nM and the GI50 [14] was less than 10 nM. It also gave a TGI [14] of less than 10 nM, a GI50 [15] of 21 nM and a TGI [15] of 50.1 nM. For the same molecule, the GI50 [16] was 18.5 nM, the TGI [16] was 36.4 nM and the GI50 [18] was 345 nM. For the same molecule, the TGI [18] was 1200 nM, the GI50 [19] was less than 10 nM and the TGI [19] was less than 10 nM. The GI50 [20] was 19.9 nM, the TGI [20] was 40 nM and the GI50 [21] was less than 10 nM. For the same molecule, the TGI [21] was 14.9 nM, the GI50 [22] was 25.4 nM and the TGI [22] was 56.1 nM. It also gave a GI50 [23] of 15.8 nM, a TGI [23] of 38.2 nM and a GI50 [24] of less than 10 nM. The TGI [24] was less than 10 nM, the GI50 [25] was 17.2 nM and the TGI [25] was 39.4 nM. The GI50 [26] was 21.7 nM, the TGI [26] was 60.1 nM and the GI50 [27] was less than 10 nM. For the same molecule, the TGI [27] was less than 10 nM, the GI50 [28] was 10.2 nM and the TGI [28] was 27.7 nM. It also gave a GI50 [29] of less than 10 nM, a TGI [29] of 24 nM and a GI50 [30] of less than 10 nM. For the same molecule, the TGI [30] was less than 10 nM, the GI50 [31] was less than 10 nM and the TGI [31] was 11.6 nM. The GI50 [32] was 39.2 nM, the TGI [32] was 157 nM and the GI50 [33] was less than 10 nM. The TGI [33] was less than 10 nM, the GI50 [34] was less than 10 nM and the TGI [34] was 82.7 nM. For the same molecule, the GI50 [35] was 20.6 nM, the TGI [35] was 43.5 nM and the GI50 [36] was 17.9 nM. For the same molecule, the TGI [36] was 37.8 nM, the GI50 [37] was less than 10 nM and the TGI [37] was less than 10 nM. The GI50 [38] was less than 10 nM, the TGI [38] was less than 10 nM and the GI50 [39] was less than 10 nM. The TGI [39] was 24.5 nM, the GI50 [41] was 12.4 nM and the TGI [41] was 30.1 nM. The GI50 [42] was 21.5 nM, the TGI [42] was 46 nM and the GI50 [43] was less than 10 nM. The TGI [43] was 21 nM, the GI50 [44] was less than 10 nM and the TGI [44] was 20.1 nM. It also gave a GI50 [45] of less than 10 nM, a TGI [45] of less than 10 nM and a GI50 [46] of 11.4 nM. For the same molecule, the TGI [46] was 27.4 nM, the GI50 [47] was 20 nM and the TGI [47] was 40 nM. The GI50 [59] was less than 10 nM, the TGI [59] was 14.7 nM and the GI50 [48] was less than 10 nM. It also gave a TGI [48] of 20.8 nM, a GI50 [49] of less than 10 nM and a TGI [49] of 22.5 nM. The GI50 [50] was less than 10 nM, the TGI [50] was less than 10 nM and the GI50 [51] was 17 nM. The TGI [51] was 34.6 nM, the GI50 [52] was 17.4 nM and the TGI [52] was 37.2 nM. It also gave a GI50 [53] of 15.7 nM, a TGI [53] of 37 nM and a GI50 [54] of 18.3 nM. The TGI [54] was 35 nM, the GI50 [55] was 19.4 nM and the TGI [55] was 36.8 nM. The GI50 [56] was 18.4 nM, the TGI [56] was 35.9 nM and the GI50 [57] was less than 10 nM. For the same molecule, the TGI [57] was less than 10 nM, the GI50 [60] was 10.1 nM and the TGI [60] was 23.8 nM. For the same molecule, the GI50 [58] was 18.2 nM and the TGI [58] was 36.3 nM.
